# Assay results from ChEMBL document CHEMBL4118095, “Conjugation of Paclitaxel to Hybrid Peptide Carrier and Biological Evaluation in Jurkat and A549 Cancer Cell Lines” (ACS Med Chem Lett, 2017).
# Tested on: A549
# Assay: Cytotoxicity against human A549 cells measured after 24 hrs
# Type: functional, cell-based
# Settings: A549, 24 h
compound,measurement,value
CC(=O)O[C@H]1C(=O)[C@@]2(C)[C@H]([C@H](OC(=O)c3ccccc3)[C@]3(O)C[C@H](OC(=O)[C@H](O)[C@@H](NC(=O)c4ccccc4)c4ccccc4)C(C)=C1C3(C)C)[C@]1(OC(C)=O)CO[C@@H]1C[C@@H]2O [PACLITAXEL],IC50,4.1 nM
